Each structure is given as a SMILES string.

In the first experiment the target is Rho-associated protein kinase 1 (Homo sapiens, UniProt Q13464). Description: (§1) In Vitro Assay: The effectiveness of compounds of the present invention as ROCK inhibitors can be determined in a 30 μL assay containing 20 mM HEPES, pH 7.5, 20 mM MgCl2, 0.015% Brij-35, 4 mM DTT, 5 μM ATP and 1.5 μM peptide substrate (FITC-AHA-[…]-OH). Compounds were dissolved in DMSO so that the final concentration of DMSO was <2%, and the reaction was initiated with Rho kinase variants. After incubation, the reaction was terminated by the addition of EDTA and the phosphorylated and non-phosphorylated peptides separated using a LABCHIP® 3000 Reader (Caliper Life Sciences). […] Compounds were tested in dose-response format, and the inhibition of kinase activity was calculated at each concentration of compound. The inhibition data were fit using a curve-fitting program to determine the IC50; i.e., the concentration of compound required to inhibit 50% of kinase activity.
Rho-associated protein kinase 1, sequence (Q13464 2-1354 limits assumed, change not shown): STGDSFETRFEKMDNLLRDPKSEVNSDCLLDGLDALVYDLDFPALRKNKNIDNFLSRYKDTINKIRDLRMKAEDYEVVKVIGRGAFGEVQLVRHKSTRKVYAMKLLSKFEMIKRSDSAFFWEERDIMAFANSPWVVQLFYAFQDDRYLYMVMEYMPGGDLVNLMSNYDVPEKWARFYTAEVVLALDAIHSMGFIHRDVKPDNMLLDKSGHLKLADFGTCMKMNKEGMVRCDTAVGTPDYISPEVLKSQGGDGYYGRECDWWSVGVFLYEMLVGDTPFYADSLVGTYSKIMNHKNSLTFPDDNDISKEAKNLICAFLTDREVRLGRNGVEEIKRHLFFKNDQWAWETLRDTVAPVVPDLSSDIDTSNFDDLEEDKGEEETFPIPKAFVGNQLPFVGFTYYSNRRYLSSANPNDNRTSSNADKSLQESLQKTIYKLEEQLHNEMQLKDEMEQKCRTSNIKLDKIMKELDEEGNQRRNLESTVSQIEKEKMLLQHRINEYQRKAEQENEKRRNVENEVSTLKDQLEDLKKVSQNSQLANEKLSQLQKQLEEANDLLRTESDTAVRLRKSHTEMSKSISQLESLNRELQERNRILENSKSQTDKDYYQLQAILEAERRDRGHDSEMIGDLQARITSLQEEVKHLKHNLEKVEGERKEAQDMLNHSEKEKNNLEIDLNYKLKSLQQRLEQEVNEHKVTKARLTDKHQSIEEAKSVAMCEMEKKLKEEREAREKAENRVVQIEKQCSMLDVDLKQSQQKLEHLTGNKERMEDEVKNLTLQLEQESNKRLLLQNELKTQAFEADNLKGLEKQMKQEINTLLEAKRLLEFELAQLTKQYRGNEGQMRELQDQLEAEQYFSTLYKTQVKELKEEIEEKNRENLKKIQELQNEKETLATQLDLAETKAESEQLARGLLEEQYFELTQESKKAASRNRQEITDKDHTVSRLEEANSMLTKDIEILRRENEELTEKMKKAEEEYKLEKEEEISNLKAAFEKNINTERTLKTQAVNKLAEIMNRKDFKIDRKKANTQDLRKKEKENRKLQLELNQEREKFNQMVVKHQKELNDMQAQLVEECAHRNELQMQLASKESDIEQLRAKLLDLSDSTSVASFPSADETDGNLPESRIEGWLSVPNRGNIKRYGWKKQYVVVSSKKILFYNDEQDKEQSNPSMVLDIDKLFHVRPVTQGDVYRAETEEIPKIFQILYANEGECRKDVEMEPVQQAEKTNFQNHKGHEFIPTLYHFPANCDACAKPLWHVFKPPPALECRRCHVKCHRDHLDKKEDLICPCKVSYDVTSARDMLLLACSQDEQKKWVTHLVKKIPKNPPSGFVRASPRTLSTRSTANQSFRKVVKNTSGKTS
Regarding `O=C(Oc1ccc(-c2n[nH]c(=O)c3ccccc23)cc1)N1Cc2ccccc2C1`, the IC50 result is “in the range around 550 nM”.

The target of a further experiment is Rho-associated protein kinase 2 (Homo sapiens, UniProt O75116). Described as §1.
Rho-associated protein kinase 2, sequence (O75116 whole entry, looked up, change not shown): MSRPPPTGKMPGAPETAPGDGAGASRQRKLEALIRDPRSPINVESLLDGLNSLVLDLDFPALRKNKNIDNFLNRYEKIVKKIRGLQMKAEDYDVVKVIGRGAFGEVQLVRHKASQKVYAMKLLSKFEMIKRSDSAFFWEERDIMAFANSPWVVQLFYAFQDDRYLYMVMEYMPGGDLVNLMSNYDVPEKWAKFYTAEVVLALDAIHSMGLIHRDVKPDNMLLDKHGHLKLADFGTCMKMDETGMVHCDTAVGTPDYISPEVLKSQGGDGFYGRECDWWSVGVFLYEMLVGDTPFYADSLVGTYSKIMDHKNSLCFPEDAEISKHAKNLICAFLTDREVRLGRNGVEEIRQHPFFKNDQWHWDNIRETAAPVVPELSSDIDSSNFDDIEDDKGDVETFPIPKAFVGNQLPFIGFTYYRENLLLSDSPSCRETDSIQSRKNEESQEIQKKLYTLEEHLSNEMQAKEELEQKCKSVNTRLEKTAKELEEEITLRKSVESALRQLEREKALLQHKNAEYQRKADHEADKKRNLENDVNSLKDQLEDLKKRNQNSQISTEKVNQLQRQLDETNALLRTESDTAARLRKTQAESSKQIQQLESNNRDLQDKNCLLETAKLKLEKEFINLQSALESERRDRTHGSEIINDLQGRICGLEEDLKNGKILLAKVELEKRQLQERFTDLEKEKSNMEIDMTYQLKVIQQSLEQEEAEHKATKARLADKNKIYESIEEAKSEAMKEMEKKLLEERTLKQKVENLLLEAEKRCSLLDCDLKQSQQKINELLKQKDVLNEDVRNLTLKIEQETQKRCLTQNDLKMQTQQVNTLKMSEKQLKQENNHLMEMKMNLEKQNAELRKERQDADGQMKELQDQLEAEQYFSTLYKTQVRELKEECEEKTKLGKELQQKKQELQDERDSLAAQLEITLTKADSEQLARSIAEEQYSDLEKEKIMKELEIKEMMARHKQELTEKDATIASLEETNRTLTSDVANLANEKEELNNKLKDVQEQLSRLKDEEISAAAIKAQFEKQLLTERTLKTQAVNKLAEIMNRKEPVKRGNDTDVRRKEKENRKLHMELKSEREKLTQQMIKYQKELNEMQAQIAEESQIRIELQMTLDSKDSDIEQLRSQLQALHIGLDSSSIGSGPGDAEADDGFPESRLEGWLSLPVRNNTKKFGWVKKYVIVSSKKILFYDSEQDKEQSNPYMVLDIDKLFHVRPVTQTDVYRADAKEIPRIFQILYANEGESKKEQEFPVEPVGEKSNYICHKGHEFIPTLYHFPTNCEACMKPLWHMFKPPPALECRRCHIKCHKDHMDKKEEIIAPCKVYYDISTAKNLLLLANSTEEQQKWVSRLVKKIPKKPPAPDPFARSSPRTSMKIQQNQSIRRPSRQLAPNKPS
In the case of `O=C(Nc1ccc(-c2n[nH]c(=O)c3ccccc23)cc1)c1cnn(C2CCS(=O)(=O)C2)c1` (stereo not drawn), the IC50 is < 100 nM.

Regarding `O=C(Nc1ccc(-c2n[nH]c(=O)c3ccccc23)cc1)c1cnn(CC(F)(F)F)c1`, the IC50 is < 100 nM. As for `CCCn1cc(C(=O)Nc2ccc(-c3n[nH]c(=O)c4ccccc34)cc2)cn1`, the half-maximal inhibitory concentration (IC50) is < 100 nM. For `O=C(Nc1ccc(-c2n[nH]c(=O)c3ccccc23)cc1)c1cc2ncccn2n1`, the 50% inhibitory concentration (IC50) was < 100 nM. Same read-out and setting: to `O=C(Nc1ccc(-c2n[nH]c(=O)c3ccccc23)cc1)c1cnn(CC(F)(F)C(F)F)c1` belongs < 100 nM; to `O=C(Nc1ccc(-c2n[nH]c(=O)c3ccccc23)cc1)c1cnn(C2CCCC2)c1`, < 100 nM.

For `O=C(Nc1ccc(-c2n[nH]c(=O)c3ccccc23)c(Cl)c1)c1nn(CC2CNC2)c2ccccc12`, the IC50 was < 100 nM. Take `O=C(Cc1ccc(-c2c[nH]c(=O)c3ccccc23)c(F)c1)N1Cc2ccccc2C1`: the IC50 is < 100 nM. Turning to `O=C(Nc1ccc(-c2n[nH]c(=O)c3ccccc23)cc1)c1cn2ccnc(Cl)c2n1`, the IC50 is < 100 nM. On to `O=C(Nc1ccc(-c2n[nH]c(=O)c3ccccc23)cc1)c1c[nH]c2ncc(F)cc12`, for which the IC50 was < 100 nM. Same read-out and setting: the result for `Cc1ccc2oc(Nc3ccc(-c4n[nH]c(=O)c5ccccc45)cc3)nc2c1` reads < 100 nM; that for `O=C(Nc1ccc(-c2n[nH]c(=O)c3ccccc23)cc1)c1nn(CC2CCNCC2)c2ccccc12`, < 100 nM; that for `CC(O)Cn1cc(C(=O)Nc2ccc(-c3n[nH]c(=O)c4ccccc34)cc2)cn1` (stereo not drawn), < 100 nM. As for `O=C(Nc1ccc(-c2n[nH]c(=O)c3ccccc23)cc1)c1cnn(CC(O)C(F)(F)F)c1` (stereo not drawn), the IC50 is < 100 nM. `O=C(Nc1ccc(-c2c[nH]c(=O)c3ccccc23)cc1)c1ccc(N2CCOCC2)cc1`: the IC50 is < 100 nM. `O=C(Nc1ccc(-c2n[nH]c(=O)c3ccccc23)c(CO)c1)c1nn(CCC2CCOCC2)c2ccccc12`: the IC50 was < 100 nM. As for `O=C(Nc1ccc(-c2n[nH]c(=O)c3ccccc23)cc1)c1cn[nH]c1`, the IC50 was < 100 nM. Same read-out and setting: the result for `O=c1[nH]nc(-c2ccc(Nc3nnc(-c4ccccc4)s3)cc2)c2ccccc12` reads < 100 nM.

Take `O=C(Nc1ccc(-c2n[nH]c(=O)c3ccccc23)cc1)c1cnn2ccc(OCCO)cc12`: the IC50 was < 100 nM. With `O=C(Nc1ccc(-c2n[nH]c(=O)c3ccccc23)cc1)c1cnn(C2CCCCC2)c1`, the IC50 is < 100 nM.

On to `CCc1c(C(=O)Nc2ccc(-c3n[nH]c(=O)c4ccccc34)cc2)nnn1-c1cccc(Cl)c1`, for which the IC50 was < 100 nM. As to `O=C(Nc1ccc(-c2n[nH]c(=O)c3ccccc23)cc1)c1cnn(CC2CC2)c1`, the IC50 is < 100 nM.

The values above are taken from ChEMBL document CHEMBL5726860, “Phthalazinones and isoquinolinones as rock inhibitors” (2018).
